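Five compound concentrations were applied to cells in 96-well plates for 48 hours; endpoints were derived by simple linear interpolation of the resulting dose-response curve. Definition used: TGI = concentration required for complete inhibition of growth.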 Bounds are passed on as bounds.

Among the test systems are HOP-92 NSCLC; IGROV1 ovarian; HT29 colon; MOLT-4 leukemia; UACC-62 melanoma; OVCAR-5 ovarian; HCT-15 colon; SK-OV-3 ovarian; RPMI-8226 leukemia.
What all share (experiment): NCI tumour cell line growth inhibition, 48 h

As for `COc1ccc2c(c1)c1c3n2CCNN=C3CCC1`, the TGI in the assay with HOP-92 NSCLC, in the assay with IGROV1 ovarian, with HT29 colon, in the assay on MOLT-4 leukemia, with UACC-62 melanoma and in the assay on OVCAR-5 ovarian was over 100 µM each time. The TGI with HCT-15 colon, with SK-OV-3 ovarian and in the assay on RPMI-8226 leukemia was over 100 µM throughout.
Turning to `CCCCNC1=C(C(=O)OCC)/C(=N/NC(=O)c2ccccc2O)CO1`, the TGI with IGROV1 ovarian, in the assay with MOLT-4 leukemia, with UACC-62 melanoma, with OVCAR-5 ovarian, in the assay on SK-OV-3 ovarian and in the assay on RPMI-8226 leukemia was over 100 µM throughout.
As to `COC(=O)C(C(=O)C(N)=O)c1csc(-n2nc(-c3ccccc3)cc2-c2ccccc2)n1` (centres undefined), the TGI was over 100 µM with HOP-92 NSCLC; over 31.6 µM in the assay with IGROV1 ovarian; over 100 µM with HT29 colon; over 31.6 µM in the assay with MOLT-4 leukemia; over 31.6 µM in the assay with UACC-62 melanoma; over 100 µM in the assay with OVCAR-5 ovarian. The TGI in the assay on HCT-15 colon, in the assay with SK-OV-3 ovarian and with RPMI-8226 leukemia was over 31.6 µM each time.
Take `CC(=O)Nc1ccc(-c2nnc(SCC(=O)Nc3ccc(Cl)cc3)o2)cc1`: the TGI turned out to be 29.3 µM with IGROV1 ovarian; 23.2 µM with HT29 colon; 32.8 µM with MOLT-4 leukemia; 20.2 µM with UACC-62 melanoma; 31.6 µM in the assay with OVCAR-5 ovarian; 40 µM in the assay with HCT-15 colon. Also, the values for the TGI in the assay with SK-OV-3 ovarian and in the assay with RPMI-8226 leukemia were 47.1 µM and over 100 µM, respectively.
Take `COc1ccc2c([nH]c3c(O)c(-c4c(C)cc5c([nH]c6c(CC=C(C)C)c(OC)ccc65)c4O)c(C)cc32)c1CC=C(C)C`: the TGI in the assay on HOP-92 NSCLC, in the assay with IGROV1 ovarian, with HT29 colon, in the assay with MOLT-4 leukemia, in the assay with UACC-62 melanoma and in the assay with OVCAR-5 ovarian was over 100 µM in each case. Further, the TGI with HCT-15 colon, in the assay on SK-OV-3 ovarian and in the assay with RPMI-8226 leukemia was over 100 µM each time.
As to `c1ccc(-c2nnc3nn4c(-c5ccccc5)cnnc4c3c2-c2ccccc2)cc1`, the TGI in the assay with HOP-92 NSCLC, in the assay on HT29 colon, with MOLT-4 leukemia, with UACC-62 melanoma, in the assay on OVCAR-5 ovarian and in the assay with HCT-15 colon was over 100 µM throughout. Also, in the assay on RPMI-8226 leukemia, the TGI is over 100 µM.
In the case of `COc1ccc(NC(=O)C2C(=O)N(c3ccc(OC)cc3)C(=O)/C2=N\NC(N)=O)cc1` (centres undefined), the TGI with HOP-92 NSCLC is 84.9 µM; with IGROV1 ovarian, 45 µM; in the assay on HT29 colon it was over 100 µM; in the assay with UACC-62 melanoma, 46.7 µM; in the assay on OVCAR-5 ovarian, over 100 µM; with HCT-15 colon, over 100 µM. In addition, the TGI is 49 µM with SK-OV-3 ovarian and over 100 µM with RPMI-8226 leukemia.
For `S=c1c2ccccc2c(=S)n2n1CC=CC2`, the TGI with HOP-92 NSCLC, with IGROV1 ovarian, with HT29 colon, in the assay with MOLT-4 leukemia, in the assay on UACC-62 melanoma and in the assay with OVCAR-5 ovarian was over 100 µM throughout. Also, the TGI with HCT-15 colon, in the assay with SK-OV-3 ovarian and in the assay on RPMI-8226 leukemia was over 100 µM in each case.
As to `COC(=O)C(=O)C(C(=O)C(=O)Nc1cc(Cl)c(Cl)cc1Cl)c1nc2ccc([N+](=O)[O-])cc2[nH]c1=O` (centres undefined), the TGI in the assay with IGROV1 ovarian, in the assay on MOLT-4 leukemia, with UACC-62 melanoma, in the assay with OVCAR-5 ovarian, with HCT-15 colon and with SK-OV-3 ovarian was over 100 µM in each case. The molecule also had a TGI in the assay with RPMI-8226 leukemia of over 100 µM.
Turning to `CCCCCCCCCCCCCCCCCC(=O)NCC(COP(=O)(O)O)OCC` (centres undefined), the TGI with HOP-92 NSCLC is 42.4 µM; in the assay on IGROV1 ovarian, over 100 µM; with HT29 colon, over 100 µM; in the assay with MOLT-4 leukemia, over 100 µM; with UACC-62 melanoma it was over 100 µM; with SK-OV-3 ovarian, over 100 µM. For the same molecule, the TGI with RPMI-8226 leukemia was over 100 µM.
Consider `Cc1ccc(/C=N/NS(=O)(=O)c2ccccc2)c(C)c1`, for which the TGI in the assay with HOP-92 NSCLC, in the assay with IGROV1 ovarian, with HT29 colon, in the assay on MOLT-4 leukemia, in the assay on UACC-62 melanoma and in the assay on OVCAR-5 ovarian was over 100 µM in each case. Moreover, the TGI in the assay on HCT-15 colon, with SK-OV-3 ovarian and in the assay with RPMI-8226 leukemia was over 100 µM in each case.
Consider `O=c1[nH]cc(C(F)(C(F)(F)F)C(F)(F)F)c(=O)[nH]1`, for which the TGI with HOP-92 NSCLC, in the assay with IGROV1 ovarian, in the assay with HT29 colon, in the assay on MOLT-4 leukemia, in the assay with UACC-62 melanoma and in the assay on OVCAR-5 ovarian was over 100 µM each time. For the same molecule, the TGI in the assay with HCT-15 colon, in the assay on SK-OV-3 ovarian and with RPMI-8226 leukemia was over 100 µM throughout.
Turning to `CC(C)[Si](OCC1CC(C#N)OC(C)(C)O1)(C(C)C)C(C)C` (centres undefined), the TGI with HOP-92 NSCLC is 57.2 µM; in the assay on IGROV1 ovarian, over 100 µM; in the assay with HT29 colon, 37.5 µM; in the assay on MOLT-4 leukemia it was 41.1 µM; with UACC-62 melanoma it was over 100 µM; with OVCAR-5 ovarian it was over 100 µM. In addition, the TGI is 79 µM in the assay with HCT-15 colon, 73.4 µM in the assay on SK-OV-3 ovarian and 33.8 µM with RPMI-8226 leukemia.
As for `CC(=O)OC(=O)O/C=C\CCl`, the TGI in the assay on IGROV1 ovarian, in the assay with MOLT-4 leukemia, in the assay on UACC-62 melanoma, with HCT-15 colon, in the assay on SK-OV-3 ovarian and in the assay on RPMI-8226 leukemia was over 100 µM each time.
With `C/C(CC(=O)Nc1cccc([N+](=O)[O-])c1)=N\NC(=O)CC#N`, the TGI with HOP-92 NSCLC, in the assay with IGROV1 ovarian, with HT29 colon, in the assay on MOLT-4 leukemia, in the assay on UACC-62 melanoma and in the assay with OVCAR-5 ovarian was over 100 µM each time. Besides, the TGI in the assay with SK-OV-3 ovarian and in the assay on RPMI-8226 leukemia was over 100 µM in each case.
Consider `O=C1C=Cc2ncccc2C1=O`, for which the TGI is 42.5 µM in the assay with HOP-92 NSCLC; over 58.3 µM in the assay with IGROV1 ovarian; 43.4 µM with HT29 colon; 31.1 µM in the assay with UACC-62 melanoma; over 58 µM in the assay on OVCAR-5 ovarian; 33.5 µM in the assay with HCT-15 colon. Further, the TGI in the assay with SK-OV-3 ovarian is over 61.7 µM; with RPMI-8226 leukemia it was 62.4 µM.
As to `O=CCCCC(Sc1ccccc1)Sc1ccccc1`, the TGI in the assay on IGROV1 ovarian worked out at 50.5 µM; in the assay on MOLT-4 leukemia it was 38.9 µM; in the assay with UACC-62 melanoma, 24.5 µM; with HCT-15 colon, 33.2 µM; with SK-OV-3 ovarian it was 59.4 µM; in the assay on RPMI-8226 leukemia, 48.6 µM.
